Assay results taken from paper PMC6394990, “Detailed characterization of the solution kinetics and thermodynamics of biotin, biocytin and HABA binding to avidin and streptavidin” (PLoS ONE, 2019).
Where “and” joins values, the source holds several entries; their conditions need not be identical. Identical values can stand only once. Like-named read-outs stand apart in the source and are kept apart here.

Experiments:
[1] = target: T1, avidin (AV) (Gallus gallus, UniProt P02701); assay: Relaxation kinetics of unlabeled biotin reacting with the AV-HABA complex; assay type: binding; settings: pH 8 and 23°C; read-out: konB, association rate of unlabeled B7 to the final site (AV-HABA3)
T1 construct: purchased Calbiochem (La Jolla, CA)
T1 sequence (P02701 25-152): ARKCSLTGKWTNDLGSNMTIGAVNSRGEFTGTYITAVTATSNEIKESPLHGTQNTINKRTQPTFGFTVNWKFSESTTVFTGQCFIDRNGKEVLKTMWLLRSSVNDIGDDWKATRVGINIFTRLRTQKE
Method: All of the following protein concentrations are presented on a binding site basis, thus in the case of the HABA association reactions for AV were measured at 23.0 ± 0.1°C with a concentration of 87 μM HABA and 7.7 μM AV. The AV-HABA relaxation reactions were conducted with a preformed AV-HABA complex made up of 200 μM HABA and 10 μM AV, flowed against varying amounts of B7 from 100 μM up to 4000 μM for a [HABA]/[B7] ratio that ranged from 0.05 to 2.
The relaxation experiments were prepared at concentrations in which HABA occupies all sites (AV-HABA4). Biotin replaces HABA relative to the koff of the dye as shown for the first step (Eq 1) and then repeated for all sites. Having greater affinity, B7 occupies all sites at the end of the reaction and the measured kon is related to the affinities of the ligand bound protein.
The reaction is monitored by the HABA absorbance changes at 500 nm as it is replaced by unlabeled B7; yielding the relaxation constant of the reaction (Relaxation, Eq 2) which contains information of the B7 association rate constant of the open binding site, k1AV−HABA3 to form a full saturated complex (AV-HABA4) and the dissociation rate of that full complex, k−1AV−HABA4 , to yield a complex with three HABA molecules (AV-HABA3). In the subsequent steps, B7 replaces HABA as the ligand but the release of HABA creates an unoccupied site that remains in the same state. In summary, the experiment was designed to acquire the pseudo-first order association rate constant of B7 binding ( konB ) to the solely free binding site in a complex occupied by three HABA molecules (AV-HABA3).
The reciprocal of the relaxation constant (1/Relaxation) is plotted vs. the [HABA]/[B] concentration ratio (Eq 3) allowing to calculate: k−1AV−HABA4 and k1AV−HABA3 by solving for the intercept ( 1/k−1AV−HABA4 ) and the respective slope: m=k1AV−HABA3/(k−1AV−HABA4∙konB) . The exponential decays were analyzed by the method of Foss. There was no departure from simple first order decay in the relaxation, justifying the use of the following model and equations.

[2] = target: T2, streptavidin (SAV) (Streptomyces avidinii, UniProt P22629); assay: Literature calorimetry reaction thermodynamics; assay type: binding; settings: SAV-B7, average of the reported values
T2 construct: purchased Sigma Aldrich (St. Louis, MO)
T2 sequence (P22629 25-183): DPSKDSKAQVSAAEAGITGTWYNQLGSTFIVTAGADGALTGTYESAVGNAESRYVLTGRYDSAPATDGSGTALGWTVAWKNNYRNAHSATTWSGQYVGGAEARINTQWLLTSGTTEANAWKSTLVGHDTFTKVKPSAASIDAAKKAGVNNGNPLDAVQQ

[3] = target: T2, streptavidin (SAV); settings: SAV-B7, cited from earlier work
[4] = Absorbance and fluorescence emission spectra, unbound probe; assay type: physicochemical; settings: unbound dye
Method: The lifetimes (τ), steady state anisotropies (rss), time-resolved anisotropies (rt) and quantum yields (QY) of the complexes (at 20 ± 0.1°C and pH 8) were collected with a dye-labeled B7 probe concentration of 20–40 nM and 1040–2080 nM of either protein (AV or SAV) to ensure that only one binding site in the tetramer was filled with a ligand (AB1 filling model).
The QY values were obtained by using a reference fluorophore of known quantum yield and were calculated according to Parker and Rees, where the reference dye was fluorescein in 0.1N sodium hydroxide solution [46]. The emission fluorescence scans were collected from 480 nm to 700 nm with the excitation light set at 460 nm provided by the xenon arc lamp described above. These measurements were made on the AB1 complexes at high protein concentration.
Supplementary file pone.0204194.s001.docx: S1 Fig Absorbance spectra of dye-labeled B7 probes and respective complexes with AV and SAV. […] The spectra are normalized to the calculated molar absorptivies. […] The labeled probes and protein concentrations were 1 μM and 10 μM, respectively. (DOCX) Click here for additional data file.
Supplementary file pone.0204194.s002.docx: S2 Fig Fluorescence emission spectra of dye-labeled B7 and respective complexes with AV and SAV. […] The probe and protein concentrations were 20 nM and 1040 nM (AB1 filling model), respectively. (DOCX) Click here for additional data file.

[5] = Time-resolved anisotropy, cone angle, unbound probe; assay type: physicochemical; settings: unbound dye
Method: The lifetimes were collected in a FluoTime100 fluorescence spectrometer (PicoQuant, GmbH, Berlin, Germany) with the excitation light source provided by a picosecond pulsed diode laser (PicoQuant, GmbH, Berlin, Germany) at 470 nm and 20 MHz. The emission was collected at 520 nm through a non-fluorescing 520 nm interference filter (Oriel Corp., Stratford, CT) followed by a liquid filter of 1cm path length containing 24 mM acetate buffered dichromate at pH 4, between the sample and detector to eliminate traces of excitation light. The fluorescence decays were fit by a nonlinear least-squares minimization based on the Marquardt algorithm embedded in the Fluofit software (PicoQuant GmbH). […] The PicoQuant G factor was calculated according to: G = ∫HV(t)dt/∫HH(t)dt, where HV(t) and HH(t) were the decays collected with the emission polarizer selecting vertical and horizontal E-vector passing orientations, respectively, and the excitation polarizer set at horizontally position. […]
In a simple model, the transition moment is assumed to wobble within a cone of semi-apical angle Ω [59], where the cone axis is normal to the surface of a sphere that corresponds to the macromolecule. The angle Ω is calculated from Eq 14.

O=C(O)CCCC[C@@H]1SC[C@@H]2NC(=O)N[C@@H]21 [B7, d-biotin]
kon [1]: 5.3e+06 ± 9e+11 M⁻¹ s⁻¹
ΔG°rxn, averaged value [2]: -18.2 ± 0.2 kcal/mol
ΔH°rxn, averaged value [2]: -24.8 ± 2.0 kcal/mol
ΔG°rxn, averaged value ([2]; listed as B): -18.2 ± 0.1 kcal/mol
ΔH°rxn ([3]; ref 19): -26.7 19 kcal/mol
ΔH°rxn ([3]; ref 19, listed as B): -26.7 6 kcal/mol
ΔG°rxn ([3]; ref 39): -18.1 kcal/mol and -18.1 36 kcal/mol
ΔH°rxn ([3]; ref 39): -24.5 kcal/mol and -24.5 36 kcal/mol
ΔS°rxn ([3]; ref 39): -21.0 [39] cal/mol°K and -21.0 36 cal/mol°K
ΔG°rxn ([3]; ref 39, listed as B): -18.1 20 kcal/mol
ΔH°rxn ([3]; ref 39, listed as B): -24.5 20 kcal/mol
ΔS°rxn ([3]; ref 39, listed as B): -21.0 20 cal/mol°K
ΔH°rxn ([3]; ref 79): -23.0 kcal/mol and -23.0 72 kcal/mol
ΔH°rxn ([3]; ref 79, listed as B): -23.0 50 kcal/mol
ΔH°rxn ([3]; ref 80): -24.9 ± 0.4 kcal/mol and -24.9 ± 0.4 80 kcal/mol
ΔH°rxn ([3]; ref 80, listed as B): -24.9 ± 0.4 53 kcal/mol
ΔG°rxn ([3]; ref 83, 84): -18.3 kcal/mol and -18.3 83,84 kcal/mol
ΔG°rxn ([3]; ref 83, 84, listed as B): -18.3 54, 57 kcal/mol

O=C(CCCC[C@@H]1SC[C@@H]2NC(=O)N[C@@H]21)NCCNC(=O)c1ccc(-c2c3ccc(=O)cc-3oc3cc(O)ccc23)c(C(=O)O)c1 [BFl, Biotin-4-fluorescein]
Abs (nm) [4]: 494 nm
Emission (nm) [4]: 530 nm
W [5]: 90 °

NC(CCCCNC(=O)CCCC[C@@H]1SC[C@@H]2NC(=O)N[C@@H]21)C(=O)NCCCCCNC(=O)c1ccc(-c2c3cc(F)c(=O)cc-3oc3cc(O)c(F)cc23)c(C(=O)O)c1 (stereo partly drawn) [BcO, Oregon green 488 Biocytin]
Abs (nm) [4]: 495 nm
Emission (nm) [4]: 523 nm
W [5]: 90 °
